Assay results as given in patent US12636277B2, “Methods for treating developmental dysplasis of hip” (WEST CHINA HOSPITAL OF SICHUAN UNIVERSITY, priority 2024, dated 2026).
Entries after “also recorded” stand apart in the source; their conditions may differ.

Assays:
[1] = system: NR3C1 and MDK expression in primary FSPC; test: Western blot of NR3C1 and MDK expression in primary FSPC after iMDK treatment; format: cell-based, human; conditions: iMDK 100 nM, DDH group FSPC in vitro, compared with the DDH group
Method: (§1) The samples from the DDH group were divided into two portions, one of which was treated with iMDK in vitro (DDH cell samples were added with iMDK, where the iMDK was 100 nM), and the specific dosages and treatments were not restricted by reference to commonly used inhibitor treatments or mixed cultures, etc. Cells in the control group and DDH group were cultured in the same way (the difference is no iMDK treatment). Post-treatment samples were examined for the expression levels of NR3C1 and MDK and cell proliferation of primary FSPC from different groups after treatment with the MDK inhibitor (IMDK), using Western blot and the Edu assay, etc., and the results were shown in FIGS. 3E-3F. As shown in FIGS. 3E-3F, compared with the DDH group, the expression levels of NR3C1 and MDK were reduced and the cell proliferation was reduced in the control group. Compared with the DDH group, the expression levels of NR3C1 and MDK were reduced in iMDK-treated FSPC, and cell proliferation capacity was reduced.

DDH rat model = test: DDH rat model, iMDK injected into the hip joints (Micro CT, HE and safranin O-solid green staining, immunohistochemistry); format: in vivo, Wistar rats; conditions: 5 mg/kg body weight into hip joints for 7 days
Method: In some embodiments, a DDH rat model is established to illustrate the results of the present disclosure. The manner of establishing the DDH rat model is as follows.
Fifteen neonatal rodents (e.g., Wistar rats, etc.) were divided into the control group, DDH group, and iMDK group. The DDH rat model was prepared by fixing the hind limbs of rats in the DDH group and the iMDK group using medical adhesive tape, etc., and keeping the hip joints internally retracted or post-extended for 10 days. […] Neonatal rats were fed by their mothers and had normal growth, development, and nutritional status. Rats in the DDH group and the iMDK group were de-taped for 30 min daily.
After 10 days, iMDK (e.g., HY-110171, etc.) was injected into the hip joints of rats in the iMDK group at a dosage of 5 mg/kg body weight for 7 days. Rats in the DDH group and control group were injected with equal volumes of saline.
It can be seen from FIG. 4 that compared with the control group, the acetabulum of the rats in the DDH group became shallow and the hip joints were dislocated.
In some embodiments, hip specimens were stained with HE (hematoxylin-eosin staining) and safranin O-solid green SO, and the results are shown in FIGS. 5A-5B. As shown in FIGS. 5A-5B, the acetabular labrum was thickened and the articular structure was disorganized in the DDH group. The iMDK group inhibited abnormal manifestations within the joint such as thickening of the acetabular labrum and joint structure disorders.

primary FSPC = test: Edu assay of cell proliferation of primary FSPC after iMDK treatment; format: cell-based, human; conditions: iMDK 100 nM, DDH group FSPC in vitro, compared with the DDH group
Method: as §1

[2] = hip specimens, rank among DDH, DDH+iMDK and control groups

In the case of O=c1oc2ccccc2cc1-c1cn2cc(Cc3ccc(F)cc3)sc2n1 [iMDK], the “expression level of MDK” value [1] is reported as “reduced”, the “expression level of NR3C1” value [1] is reported as “reduced” and the “abnormal manifestations within the joint such as thickening of the acetabular labrum and joint structure disorders (HE, safranin O-solid green staining)” value (DDH rat model; hip specimens) is reported as “inhibited; also recorded: inhibits the thickening of the acetabular labrum”. The “expression level of Ki67 (immunohistochemistry)” value (DDH rat model; [2]) was “highest in the DDH group, followed by the DDH+iMDK group”, the “expression level of NR3C1 (immunohistochemistry)” value (DDH rat model; [2]) was “highest in the DDH group, followed by the DDH+iMDK group” and the “hip dislocation (Micro CT)” value (DDH rat model; specimens 24 days after end of treatment) was “significant improvement”. For the same compound, the cell proliferation capacity (primary FSPC) was “reduced”.
